Patent US20220168301A1, “METHODS FOR TREATING SYMPTOMATIC ORTHOSTATIC HYPOTENSION” (Cerecor Inc, priority 2019, published 2022)
Like-named read-outs stand apart in the source and are kept apart here.

Columns and labels:
Type in all cases: in vivo, human
[1] = Plasma pharmacokinetics of CERC-301, single and 7-day repeated dose, healthy subjects; conditions: for half-life: read-out: Average t1/2; for Tmax: read-out: Median tmax
Procedure: (§1) The study was a randomized, double-blind, placebo-controlled parallel-group, three-part, repeated dose in-patient study investigating the safety, tolerability, PK, and PD of CERC-301 in healthy subjects.
(§2) Subjects received 8, 12, 16 or 20 mg CERC-301 or matching placebo once-daily for 7 days.
PK endpoints included the following determined from plasma CERC-301 concentration data: • Day 1 parameters include Cmax, Tmax, AUC0-24, AUC0-inf, AUC%extrap, CL/F, Vz/F, and t1/2 • Day 7 parameters include Cmax, Tmax, AUC0-24, AUC0-inf, AUC%extrap, CL/F, Vss/F, t1/2, and Cavg • Trough concentrations will be reported for Days 2-8 • Accumulation after 7-days of dosing will be investigated by calculating: • Observed Accumulation Ratio: AUCo-24 (Day 7)/AUC0-24 (Day 1) • Steady State Accumulation Ratio: AUC0-24 (Day 7)/AUC0-int (Day 1) • Cmax ratio: Cmax (Day 7)/Cmax (Day 1)
Pharmacokinetic parameters were determined for CERC-301 using noncompartmental methods based on plasma CERC-301 concentration data following the first and last dose of CERC-301. […] Mean plasma CERC-301 concentrations on Day 7 were approximately 20% to 40% higher from 2 to 24 hours postdose in the intermediate age and elderly subgroups, respectively, compared to the young age subgroup, and were approximately 20% higher from 2 to 24 hours postdose in female subjects compared to male subjects.

healthy subjects = test: Safety and tolerability over 7 days of once-daily administration in healthy subjects
Procedure: as §1, §2
The safety variables evaluated included treatment-emergent adverse events (TEAE), vital signs, clinical safety laboratories (chemistry, hematology, urinalysis), electrocardiograms (ECGs), physical examinations, Clinician Administered Dissociated States Scale (CADSS) and Columbia-Suicide Severity Rating Scale (C-SSRS).

[2] = Plasma pharmacokinetics of single escalating doses in patients with symptomatic nOH associated with Parkinson's disease; conditions: for Cmax / AUC: human, plasma, oral; for AUC: 6-hour PK collection period, read-out: Area Under the Curve (AUC)
Procedure: Subjects were dosed on five separate occasions, approximately 7-10 days apart, with one of four single escalating doses of CERC-301 or placebo and underwent an orthostatic challenge test to assess the safety, tolerability, effect on blood pressure, and PK. Subjects also completed a symptomatic assessment following the orthostatic challenge. Subjects were enrolled and randomized based on the dosing schedule in Table 4:
Investigational product was administered as CERC-301 4 mg tablets and matching placebo. Study drug was administered orally (P.O) with water approximately 1.5 hours after the patient consumed breakfast.
PK samples were drawn pre-dose and at 0.5, 1, 2, 4 and 6 hours post-dose. All blood draws were done after blood pressure measures are taken.
Blood samples for plasma concentration analysis of CERC-301 were collected at pre-dose and 0.5, 1, 2, 4 and 6 hours post-dose at all visits.
Blood sampling, processing, storage, and shipping instructions were provided in the Laboratory Manual. The plasma samples were analyzed via liquid chromatography tandem mass spectrometry (LC-MS/MS) following a validated method.
PK parameter estimates for CERC 301 were calculated using standard non-compartmental methods of analysis.

## Cc1ccc(COC(=O)N2CC[C@H](CNc3ncccn3)[C@H](F)C2)cc1 [CERC-301]
[1]; 8 to 20 mg, steady-state daily dosing
  Plasma CERC-301 concentrations increase with dose: approximately dose proportional
[1]; Day 7
  Apparent oral clearance, lower in female subjects compared to male subjects: approximately 15%
  Apparent oral clearance, lower in intermediate age group compared to young age group: approximately 18%
  Average Cmax, higher in intermediate age and elderly subgroups compared to young age group: approximately 30%
  Average t1/2, higher in elderly age group compared to young age group: ~38%
  Average t1/2, higher in female subjects compared to male subjects: approximately 16%
  Average t1/2, higher in intermediate age group compared to young age group: approximately 27%
[1]; Day 7, 2 to 24 hours postdose
  Mean plasma CERC-301 concentrations, higher in elderly subgroup compared to young age subgroup: ~40%
  Mean plasma CERC-301 concentrations, higher in female subjects compared to male subjects: approximately 20%
  Mean plasma CERC-301 concentrations, higher in intermediate age subgroup compared to young age subgroup: approximately 20%
[1]; Days 1 and 7, 8 to 20 mg
  Cmax and AUC increase with dose: approximately dose-proportional
[1]; both sexes, human, plasma, oral, male and female subjects, Day 7
  half-life: 21 to 24 h
[1]; both sexes, human, plasma, oral, male and female subjects
  Tmax: 1.75 to 2 h
[1]; elderly age group
  Average Day 7 to Day 1 Cmax ratio: 1.53
  Mean observed accumulation index: 2.12
  Mean steady state accumulation index: 1.30
[1]; elderly age subgroup, Day 7
  Average apparent volume of distribution: 111 L
[1]; females
  Average Day 7 to Day 1 Cmax ratio: 1.38
  Mean observed accumulation index: 1.88
  Mean steady state accumulation index: 1.10
[1]; females, Day 7
  Average apparent volume of distribution: 105 L
[1]; human, in vivo, po
  Oral bioavailability: orally bioavailable
[1]; human, plasma, oral, Day 1, 8 to 20 mg
  Tmax: 2 to 3 h
[1]; human, plasma, oral, Day 7, 8 to 20 mg
  Tmax: 1.5 to 3 h
[1]; human, plasma, oral, young subjects, Days 1 and 7, 8 to 20 mg
  Tmax: 1.5 to 3 h
[1]; human, plasma, oral, young, intermediate age and elderly subgroups, Day 7
  half-life: 20 to 28 h
[1]; human, plasma, oral, young, intermediate age and elderly subgroups
  Tmax: 1.5 to 2.5 h
[1]; human, plasma, oral, young subjects, Day 7, 8 to 20 mg, read-out: Average apparent volume of distribution
  Vd: 83 to 115 L
[1]; human, plasma, oral, young subjects, Day 7, 8 to 20 mg
  half-life: 17 to 21 h
[1]; intermediate age group
  Average Day 7 to Day 1 Cmax ratio: 1.41
  Mean observed accumulation index: 1.92
  Mean steady state accumulation index: 1.13
[1]; intermediate age subgroup, Day 7
  Average apparent volume of distribution: 121 L
[1]; males
  Average Day 7 to Day 1 Cmax ratio: 1.36
  Mean observed accumulation index: 1.72
  Mean steady state accumulation index: 1.15
[1]; males, Day 7
  Average apparent volume of distribution: 108 L
[1]; repeated daily doses
  Steady-state predose plasma CERC-301 concentrations achieved: by study day 5 or 6
[1]; young age group
  Average Day 7 to Day 1 Cmax ratio: 1.15
  Mean observed accumulation index: 1.65
  Mean steady state accumulation index: 1.01
[1]; young age subgroup, Day 7
  Average apparent volume of distribution: 115 L
[1]; young subjects, on average
  Steady-state accumulation index (AUC0-24 Day 7/AUC0-inf Day 1): 1.1
Healthy subjects; 8 to 20 mg for 7 days
  Changes in vital signs, ECGs or physical examination attributable to CERC-301: no clinically significant adverse changes
  Dose-related or age-related differences in TEAEs or related AEs: no clear-cut dose-related or age-related differences
  Most common related AEs (each in at least two subjects receiving CERC-301): feeling abnormal, headache, feeling of relaxation, elevated mood, dizziness, logorrhea, sedation, visual impairment, energy increased, palpitations, disturbance in attention, hypervigilance, confusional state, oral paresthesia, anxiety, chest pain, depressed mood, diarrhea, and balance disorder
Healthy subjects; except ALT/AST increases in one elderly and elevated prolactin in one young, both 12 mg
  Laboratory abnormalities attributable to CERC-301: no clinically significant laboratory abnormalities
Healthy subjects; repeated daily doses of 8, 12, 16 and 20 mg for 7 days
  Tolerability: generally well tolerated
[2]; 8 to 20 mg single doses (FIG. 2)
  Cmax dose proportionality: generally dose proportional
[2]; all dosing groups (8, 12, 16, 20 mg single dose P.O.)
  Tmax: approximately 2 hours post dose
[2]; 8 mg single dose
  Cmax: 108 ng/mL
  AUC: 473 ng·h/mL
[2]; 12 mg single dose
  Cmax: 161 ng/mL
  AUC: 795 ng·h/mL
[2]; 16 mg single dose
  Cmax: 187 ng/mL
  AUC: 954 ng·h/mL
[2]; 20 mg single dose
  Cmax: 266 ng/mL
  AUC: 1240 ng·h/mL
